Experimental findings from publication PMC11793105, “A kalihinol analog disrupts apicoplast function and vesicular trafficking in P. falciparum malaria” (Science (New York, N.Y.), 2024) are described below.

The subject of data set [1] is synchronized P. falciparum 3D7 parasites. Nature of the data set: Parasitemia and asexual stage phenotype analyses. The note with it: IC80, synchronized 3D7, second IEC. It counts as cell-based, Plasmodium falciparum. As for the experimental part:
Fig. 1. […] (B) SYBR Green–based dose response assays were conducted on early-ring stage parasites (6 hours after invasion). […] 3D7 WT (blue), NF54 (green), drug-resistant strains Dd2 (red), HB3 (black), W2 (gray), and D10-ACP-GFP (purple) lines (Sigmoidal, 4PL, X is concentration, n ≥ 3, nonlinear regression, CI: 95%). (C) Schematic diagram of the development of P. falciparum after two consecutive erythrocytic cycles. The time points at which MED6-189 was introduced are depicted in green. HPS, hours post synchronization. […] The images depict various developmental stages of the parasite’s intraerythrocytic life cycle. Bordered images represent time points when drug was first introduced (n = 3 biological replicates, P < 0.05). […]
Data analysis The percentage of parasitized erythrocytes was determined by enumerating the number of Hoechst positive events out of the total erythrocytes after excluding non-single cells by forward and side scatter. The percent survival was calculated by averaging the parasitemia in the triplicates for each condition and then dividing by the parasitemia observed in the wells that did not receive drug treatment. The IC50 was then calculated using GraphPad Prism 9 (GraphPad […]
hrs. […] Parasitemia and proportion of the different asexual blood stages were determined by counting Giemsa-stained blood smears by light microscopy at every 12-hour time point. […]

Data set [2] relates to P. falciparum metabolites. Nature of the data set: LC-MS metabolomic profiling (lipids and polar metabolites). It counts as cell-based, Plasmodium falciparum. The conditions noted are these: treated parasites, second IEC (72 hours after treatment).
Another data set relates to erythrocytes. Nature of the data set: Hemolytic activity assay (Giemsa smeared culture images). Type of data set: cell-based. The conditions noted are these: concentrations up to 10 μM. As for the experimental part: and two formamide derivatives.
2 and GB209-3 compounds tested after 48Hr and 72Hr drug incubation. […]

Data set [3] deals with S. cerevisiae strains with overexpressed or repressed Sec13p. It counts as cell-based, Saccharomyces cerevisiae. The note with it: Tet-off promoter, doxycycline, vs WT yeast. An excerpt: Fig. 4. […] (C) Schematic representation of the CRISPR-Cas9–based replacement strategy used to introduce a deletion of the targeted repeat regions in the PfSec13 gene. The insertion was achieved through overlap extension polymerase chain reaction (PCR) of fragments directly upstream and downstream of the target segment and subsequently formed by primer overlap extension PCR to replicate the desired deletion. […] (D) Predicted structure of the SEC13 protein highlighting the seven amino acid tandem repeat regions targeted for deletion (red). […] Data were analyzed using a Sigmoidal, 4PL (X represents concentration, n = 3, nonlinear regression, CI: 95%).
PCR amplification and introduced into an episomal E. coli/yeast shuttle vector, pRS425, by using an in-fusion cloning kit (Takara Bio USA, Inc) and the resulting pRS425-SEC13 plasmid was transformed into the BY4741 yeast strain. To swiftly repress the SEC13 gene, we utilized the tet-off system. This involved substituting the native SEC13 gene promoter with a tetracycline (tet)- regulatable counterpart, while leaving the original SEC13 open reading frame intact. The yeast

Data set [4] concerns P. falciparum HB3 (MRA-155). Kind of data set: SYBR Green I growth inhibition assay, HB3. It counts as cell-based, Plasmodium falciparum. The conditions noted are these: early-ring stage, 72 h exposure. The method, then:
Fig. 1. […] (B) SYBR Green–based dose response assays were conducted on early-ring stage parasites (6 hours after invasion). […] 3D7 WT (blue), NF54 (green), drug-resistant strains Dd2 (red), HB3 (black), W2 (gray), and D10-ACP-GFP (purple) lines (Sigmoidal, 4PL, X is concentration, n ≥ 3, nonlinear regression, CI: 95%). (C) Schematic diagram of the development of P. falciparum after two consecutive erythrocytic cycles. The time points at which MED6-189 was introduced are depicted in green. HPS, hours post synchronization. […] The images depict various developmental stages of the parasite’s intraerythrocytic life cycle. Bordered images represent time points when drug was first introduced (n = 3 biological replicates, P < 0.05).
Detailed information on materials and methods is available in the supplementary materials. […] P. knowlesi assays were quantitatively measured by flow cytometry using SYBR Green I and Mitrotracker Deep Red, as previously described ([84], [85]), on a Beckman Coulter CytoFLEX. […]
P. falciparum in vitro SYBR green fluorescence-based assays The anti-malarial activity of individual analogues were evaluated in-vitro against P. falciparum 3D7 (MRA-102, drug […]
green-I based fluorescence assay. Parasite growth rate and stages of development were determined via microscopy through Giemsa-stained smears of the cultures. […]

A word on the IC50: it is the concentration at which inhibition is half-maximal. On to `[C-]#[N+][C@]1(C)CC[C@H]2[C@@H]([C@@H](C(C)C)CC[C@]2(C)[N+]#[C-])[C@H]1O` [MED6-189], for which the “effect on asexual intraerythrocytic development” value in data set [1] was “unable to fully undergo schizogony or reinvasion”. Further, the “increase in lysophosphatidylcholine (LPC) steady-state levels” value in data set [2] is on record as roughly 3.5 fold. Besides, the hemolytic activity result with erythrocytes is given as “no hemolytic activity”. In addition, the “increase in susceptibility on Sec13p repression” value in data set [3] is listed as ~ 5.5 fold. Also, the IC50 in data set [4] (Plasmodium falciparum, HB3, 72 h) was found to be 23 ± 2 nM; in data set [4] it was 22.8 nM.
